The target of this assay is full length MPS1 (Homo sapiens (Human), UniProt P33981). In words: Measurement of inhibition of MPS1 kinase (Caliper EZ reader mobility shift assay). It counts as biochemical. The procedure: Measurement of Inhibition of MPS1 Kinase
(5 μM), ATP(10 μM), either DMSO (1% v/v) or the test compound (in the range 0.25 nM-100 μM in 1% DMSO) and assay buffer (50 mM HEPES (pH 7.0), 0.02% NaN3, 0.01% BSA, 0.1 mM Orthovandate, […], 1 μM DTT, Roche protease inhibitor). The reaction was carried out for 60 min at room temperature and stopped by the addition of buffer (10 μl) containing 20 mM EDTA, 0.05% (v/v) Brij-35, in 0.1M HEPES-buffered saline (Free acid, Sigma, UK). The plate was read on a Caliper EZ reader II (Caliper Life Sciences).
The reader provides a Software package (‘Reviewer’) which converts the peak heights into % conversion by measuring both product and substrate peak and also allows selection of control well which represent 0% and 100% inhibition respectively. The % inhibition of the compounds is calculated relative to the means of selected control wells. IC50s are determined by testing the compounds at a range of concentrations from 0.25 nM-100 μM. The % inhibitions at each concentration are then fitted to a 4 parameter logistic fit: y=(a+((b−a)/(1+((c/x^d)))) where a=asym min, b=asym max, c=IC50 and d=hill coefficient

Where [1] appears, read: full length MPS1 12.5 nM or 3 nM, H236 peptide 5 μM, ATP 10 μM, 60 min at room temperature, read-out: MPS1 IC50.

Among the data in patent US10188642B2, “Pharmacologically active compounds” (Cancer Research Technology Limited, priority 2012, dated 2019) are IC50 values, retold here.

Read-outs that look alike come from different tables or passages of the source.

Chain of full length MPS1 (P33981 whole entry): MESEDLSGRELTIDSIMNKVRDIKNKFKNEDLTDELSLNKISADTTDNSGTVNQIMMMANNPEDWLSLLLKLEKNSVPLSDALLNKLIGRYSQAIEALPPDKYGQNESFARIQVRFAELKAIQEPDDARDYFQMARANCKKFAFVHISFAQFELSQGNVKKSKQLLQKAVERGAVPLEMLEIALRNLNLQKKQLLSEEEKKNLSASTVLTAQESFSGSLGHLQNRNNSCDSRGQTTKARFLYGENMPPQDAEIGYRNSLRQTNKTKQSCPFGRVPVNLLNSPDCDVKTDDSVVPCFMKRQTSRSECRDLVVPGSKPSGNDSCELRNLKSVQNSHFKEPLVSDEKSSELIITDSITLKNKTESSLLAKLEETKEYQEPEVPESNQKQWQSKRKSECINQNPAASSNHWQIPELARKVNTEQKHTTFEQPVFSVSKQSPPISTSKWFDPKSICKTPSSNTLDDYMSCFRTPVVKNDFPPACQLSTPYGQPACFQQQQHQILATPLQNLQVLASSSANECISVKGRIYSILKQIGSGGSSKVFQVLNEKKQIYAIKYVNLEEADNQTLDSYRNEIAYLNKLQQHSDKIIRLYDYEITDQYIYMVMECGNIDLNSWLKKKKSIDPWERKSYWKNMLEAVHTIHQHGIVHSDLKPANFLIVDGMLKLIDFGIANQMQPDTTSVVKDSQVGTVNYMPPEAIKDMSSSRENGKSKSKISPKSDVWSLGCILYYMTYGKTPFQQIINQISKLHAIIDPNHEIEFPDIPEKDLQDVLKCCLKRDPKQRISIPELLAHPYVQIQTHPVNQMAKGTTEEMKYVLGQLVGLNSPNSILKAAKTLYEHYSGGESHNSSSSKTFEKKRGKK

For `COc1cc(-c2cnc(C)n2C)ccc1Nc1cc2cc(-c3cnn(CC(O)CO)c3)ccc2cn1` (racemic) [Example 109, Racemic 3-(4-(3-((4-(1,2-Dimethyl-1H-imidazol-5-yl)-2-methoxyphenyl)amino)isoquinolin-6-yl)-1H-pyrazol-1-yl)propane-1,2-diol], the IC50 – broadly, the concentration needed to halve the response being measured – worked out at 3 nM.
In the case of `COCCn1cc(-c2ccc3cnc(Nc4ccc(-c5cnn(C)c5CO)cc4OC)cc3c2)cn1` [Example 32, (4-(3-Methoxy-4-((6-(1-(2-methoxyethyl)-1H-pyrazol-4-yl)isoquinolin-3-yl)amino)phenyl)-1-methyl-1H-pyrazol-5-yl)methanol], the IC50 under setting [1] is 3 nM.
On the same count and under the same terms, in the case of `CNC(=O)c1ccc2cnc(Nc3ccc(-c4cnn(C)c4)cc3OC)cc2n1` [Example 108, 7-(2-Methoxy-4-(1-methyl-1H-pyrazol-4-yl)phenylamino)-N-methyl-1,6-naphthyridine-2-carboxamide] it was 7 nM.
